From patent publication US12077503B2, “Substituted cyclic amides and their use as herbicides” (FMC CORPORATION, priority 2015, dated 2024)

What was measured:
Type in all cases: in vivo
[1] = tested on: pigweed (Amaranthus retroflexus); assay: Test A postemergence; conditions: Amaranthus retroflexus, post-emergence, 240 h; for pest or weed control at 125 g/ha: 125 g ai/ha, postemergence, visual injury on 0 to 100 scale (0 no effect, 100 complete control), approx. 10 d, read-out: Pigweed plant response rating; for pest or weed control at 31 g/ha: Postemergence, 31 g ai/ha, visual injury after approx. 10 d, 0 to 100 scale, 0 no effect, 100 complete control, read-out: Plant response rating, Pigweed
Procedure, shortened: (§1)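 Ratings of 0 (no effect) to 100 (complete control) come from visual comparison with untreated controls roughly 10 d after treatment. Test chemicals, formulated in a non-phytotoxic solvent mixture with surfactant, were applied either as a preemergence directed soil spray on seeded soil or postemergence to one- to two-leaf plants 2 to 10 cm tall.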

Kochia (Kochia scoparia) [2] = assay: Test A postemergence; conditions: Bassia scoparia, post-emergence, 240 h; for pest or weed control at 125 g/ha: 125 g ai/ha, postemergence, visual injury on 0 to 100 scale (0 no effect, 100 complete control), approx. 10 d, read-out: Kochia plant response rating; for pest or weed control at 31 g/ha: Postemergence, 31 g ai/ha, visual injury after approx. 10 d, 0 to 100 scale, 0 no effect, 100 complete control, read-out: Plant response rating, Kochia
Procedure, shortened: as §1

[3] = tested on: ryegrass, Italian (Italian ryegrass, Lolium multiflorum); assay: Test A postemergence; conditions: Lolium multiflorum, post-emergence, 240 h; for pest or weed control at 125 g/ha: 125 g ai/ha, postemergence, visual injury on 0 to 100 scale (0 no effect, 100 complete control), approx. 10 d, read-out: Ryegrass, Italian plant response rating; for pest or weed control at 31 g/ha: Postemergence, 31 g ai/ha, visual injury after approx. 10 d, 0 to 100 scale, 0 no effect, 100 complete control, read-out: Plant response rating, Ryegrass, Italian
Procedure, shortened: as §1

[4] = tested on: wheat (Triticum aestivum); assay: Test A postemergence; conditions: Triticum aestivum, post-emergence, 240 h; for plant injury at 125 g/ha: 125 g ai/ha, postemergence, visual injury on 0 to 100 scale (0 no effect, 100 complete control), approx. 10 d, read-out: Wheat plant response rating; for plant injury at 31 g/ha: Postemergence, 31 g ai/ha, visual injury after approx. 10 d, 0 to 100 scale, 0 no effect, 100 complete control, read-out: Plant response rating, Wheat
Procedure, shortened: as §1

[5] = tested on: barnyardgrass (Echinochloa crus-galli); assay: Test A postemergence; conditions: Echinochloa crus-galli, post-emergence, 240 h; for pest or weed control at 125 g/ha: 125 g ai/ha, postemergence, visual injury on 0 to 100 scale (0 no effect, 100 complete control), approx. 10 d, read-out: Barnyardgrass plant response rating; for pest or weed control at 31 g/ha: Postemergence, 31 g ai/ha, visual injury after approx. 10 d, 0 to 100 scale, 0 no effect, 100 complete control, read-out: Plant response rating, Barnyardgrass
Procedure, shortened: as §1

corn (Zea mays) = assay: Test A postemergence; conditions: Zea mays, post-emergence, 240 h; for plant injury at 125 g/ha: 125 g ai/ha, postemergence, visual injury on 0 to 100 scale (0 no effect, 100 complete control), approx. 10 d, read-out: Corn plant response rating; for Corn plant response rating (crop injury, 0 = no effect, 100 = complete kill) at 31 g/ha: Postemergence, 31 g ai/ha, visual injury after approx. 10 d, 0 to 100 scale, 100 complete control
Procedure, shortened: as §1

[6] = tested on: giant foxtail (Setaria faberii); assay: Test A postemergence; conditions: Setaria faberi, post-emergence, 240 h; for pest or weed control at 125 g/ha: 125 g ai/ha, postemergence, visual injury on 0 to 100 scale (0 no effect, 100 complete control), approx. 10 d, read-out: Foxtail, Giant plant response rating; for pest or weed control at 31 g/ha: Postemergence, 31 g ai/ha, visual injury after approx. 10 d, 0 to 100 scale, 0 no effect, 100 complete control, read-out: Plant response rating, Foxtail, Giant
Procedure, shortened: as §1

[7] = tested on: blackgrass (Alopecurus myosuroides); assay: Test A postemergence; conditions: Alopecurus myosuroides, post-emergence, 240 h; for pest or weed control at 125 g/ha: 125 g ai/ha, postemergence, visual injury on 0 to 100 scale (0 no effect, 100 complete control), approx. 10 d, read-out: Blackgrass plant response rating; for pest or weed control at 31 g/ha: Postemergence, 31 g ai/ha, visual injury after approx. 10 d, 0 to 100 scale, 0 no effect, 100 complete control, read-out: Plant response rating, Blackgrass
Procedure, shortened: as §1

[8] = tested on: ragweed (common ragweed, Ambrosia elatior); assay: Test A postemergence; conditions: Ambrosia artemisiifolia, post-emergence, 240 h; for pest or weed control at 125 g/ha: 125 g ai/ha, postemergence, visual injury on 0 to 100 scale (0 no effect, 100 complete control), approx. 10 d, read-out: Ragweed plant response rating; for pest or weed control at 31 g/ha: Postemergence, 31 g ai/ha, visual injury after approx. 10 d, 0 to 100 scale, 0 no effect, 100 complete control, read-out: Plant response rating, Ragweed
Procedure, shortened: as §1

[9] = tested on: pigweed (Amaranthus retroflexus); assay: Test A preemergence; conditions: Amaranthus retroflexus, pre-emergence, 240 h, 0 to 100 scale where 0 is no effect and 100 is complete control, read-out: Pigweed plant response rating; for pest or weed control at 31 g/ha: 31 g ai/ha, Preemergence; for pest or weed control at 125 g/ha: 125 g ai/ha, preemergence, approx. 10 d
Kochia (Kochia scoparia) [10] = assay: Test A preemergence; conditions: Bassia scoparia, pre-emergence, 240 h, 0 to 100 scale where 0 is no effect and 100 is complete control, read-out: Kochia plant response rating; for pest or weed control at 31 g/ha: 31 g ai/ha, Preemergence; for pest or weed control at 125 g/ha: 125 g ai/ha, preemergence, approx. 10 d
Procedure, shortened: as §1

[11] = tested on: ryegrass, Italian (Italian ryegrass, Lolium multiflorum); assay: Test A preemergence; conditions: Lolium multiflorum, pre-emergence, 240 h, 0 to 100 scale where 0 is no effect and 100 is complete control, read-out: Ryegrass, Italian plant response rating; for pest or weed control at 31 g/ha: 31 g ai/ha, Preemergence; for pest or weed control at 125 g/ha: 125 g ai/ha, preemergence, approx. 10 d
Procedure, shortened: as §1

[12] = tested on: barnyardgrass (Echinochloa crus-galli); assay: Test A preemergence; conditions: Echinochloa crus-galli, pre-emergence, 240 h, 0 to 100 scale where 0 is no effect and 100 is complete control, read-out: Barnyardgrass plant response rating; for pest or weed control at 31 g/ha: 31 g ai/ha, Preemergence; for pest or weed control at 125 g/ha: 125 g ai/ha, preemergence, approx. 10 d
Procedure, shortened: as §1

[13] = tested on: giant foxtail (Setaria faberii); assay: Test A preemergence; conditions: Setaria faberi, pre-emergence, 240 h, 0 to 100 scale where 0 is no effect and 100 is complete control, read-out: Foxtail, Giant plant response rating; for pest or weed control at 31 g/ha: 31 g ai/ha, Preemergence; for pest or weed control at 125 g/ha: 125 g ai/ha, preemergence, approx. 10 d
Procedure, shortened: as §1

[14] = tested on: ragweed (common ragweed, Ambrosia elatior); assay: Test A preemergence; conditions: Ambrosia artemisiifolia, pre-emergence, 240 h, 0 to 100 scale where 0 is no effect and 100 is complete control, read-out: Ragweed plant response rating; for pest or weed control at 31 g/ha: 31 g ai/ha, Preemergence; for pest or weed control at 125 g/ha: 125 g ai/ha, preemergence, approx. 10 d
Procedure, shortened: as §1

[15] = tested on: sedge, umbrella (small-flower umbrella sedge, Cyperus difformis); assay: Test B flooded paddy test; conditions: Cyperus difformis, 250 g ai/ha, Flood; 0 to 100 scale where 0 is no effect and 100 is complete control; read-out: Sedge, Umbrella plant response rating
Procedure, shortened: (§2)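 Rating scale 0–100 (visual, vs untreated controls) after a 13–15 d greenhouse period; application to the flood layer, 3 cm above soil and maintained; plants at 2-leaf stage when treated.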

rice (Oryra sativa) = assay: Test B flooded paddy test; conditions: Oryza sativa, 250 g ai/ha, Flood; 0 to 100 scale where 0 is no effect and 100 is complete control; read-out: Rice plant response rating
Procedure, shortened: as §2

[16] = tested on: ducksalad (Heteranthera limosa); assay: Test B flooded paddy test; conditions: Heteranthera limosa, 250 g ai/ha, Flood; 0 to 100 scale where 0 is no effect and 100 is complete control; read-out: Ducksalad plant response rating
Procedure, shortened: as §2

[17] = tested on: barnyardgrass (Echinochloa crus-galli); assay: Test B flooded paddy test; conditions: Echinochloa crus-galli, 250 g ai/ha, Flood; 0 to 100 scale where 0 is no effect and 100 is complete control; read-out: Barnyardgrass plant response rating
Procedure, shortened: as §2

SMILES | pest or weed control at 125 g/ha [1] [%] | pest or weed control at 31 g/ha [1] [%] | pest or weed control at 125 g/ha (Kochia (Kochia scoparia) [2]) [%] | pest or weed control at 31 g/ha (Kochia (Kochia scoparia) [2]) [%] | pest or weed control at 125 g/ha [3] [%] | pest or weed control at 31 g/ha [3] [%] | plant injury at 125 g/ha [4] [%] | plant injury at 31 g/ha [4] [%] | pest or weed control at 125 g/ha [5] [%] | pest or weed control at 31 g/ha [5] [%] | plant injury at 125 g/ha (corn (Zea mays)) [%] | Corn plant response rating (crop injury, 0 = no effect, 100 = complete kill) at 31 g/ha (corn (Zea mays)) [%] | pest or weed control at 125 g/ha [6] [%] | pest or weed control at 31 g/ha [6] [%] | pest or weed control at 125 g/ha [7] [%] | pest or weed control at 31 g/ha [7] [%] | pest or weed control at 125 g/ha [8] [%] | pest or weed control at 31 g/ha [8] [%] | pest or weed control at 31 g/ha [9] [%] | pest or weed control at 125 g/ha [9] [%] | further results
CSc1ccccc1NC(=O)[C@H]1C(=O)N(C)C[C@@H]1c1ccc(F)c(OC(C)C)c1 [Compound 1076] | 0 | 0 | 0 | 0 | 0 | 0 | 0 | 0 | 50 | 0 | 0 | 0 | 50 | 0 | 20 | 0 | 0 | 0 | 0 | 20 | pest or weed control at 31 g/ha (Kochia (Kochia scoparia) [10]): 0%; pest or weed control at 125 g/ha (Kochia (Kochia scoparia) [10]): 0%; pest or weed control at 31 g/ha [11]: 0%; pest or weed control at 125 g/ha [11]: 0%; pest or weed control at 31 g/ha [12]: 0%; pest or weed control at 125 g/ha [12]: 90%; pest or weed control at 31 g/ha [13]: 80%; pest or weed control at 125 g/ha [13]: 100%; pest or weed control at 31 g/ha [14]: 10%; pest or weed control at 125 g/ha [14]: 0%; pest or weed control at 250 g/ha [15]: 0%; pest or weed control at 250 g/ha (rice (Oryra sativa)): 40%; pest or weed control at 250 g/ha [16]: 90%; pest or weed control at 250 g/ha [17]: 20%
Cc1c(F)cccc1NC(=O)[C@H]1C(=O)N(C)C[C@@H]1c1cc(C(F)F)cs1 [Compound 1089] | 0 | 0 | 0 | 0 | 0 | 0 | 30 | 0 | 90 | 60 | 30 | 0 | 90 | 80 | 30 | 0 | 20 | 0 | 0 | 0 | pest or weed control at 31 g/ha (Kochia (Kochia scoparia) [10]): 0%; pest or weed control at 125 g/ha (Kochia (Kochia scoparia) [10]): 20%; pest or weed control at 31 g/ha [11]: 0%; pest or weed control at 125 g/ha [11]: 10%; pest or weed control at 31 g/ha [12]: 90%; pest or weed control at 125 g/ha [12]: 90%; pest or weed control at 31 g/ha [13]: 100%; pest or weed control at 125 g/ha [13]: 100%; pest or weed control at 31 g/ha [14]: 0%; pest or weed control at 125 g/ha [14]: 60%; pest or weed control at 250 g/ha [15]: 0%; pest or weed control at 250 g/ha (rice (Oryra sativa)): 0%; pest or weed control at 250 g/ha [16]: 85%; pest or weed control at 250 g/ha [17]: 90%
